Consider 1 compound from BindingDB's records for patent US9745328 (Janssen Pharmaceutica NV, 2017).

The target in the assay is T1, Arachidonate 5-lipoxygenase-activating protein (Homo sapiens, UniProt P20292).
T1 sequence (P20292 whole entry): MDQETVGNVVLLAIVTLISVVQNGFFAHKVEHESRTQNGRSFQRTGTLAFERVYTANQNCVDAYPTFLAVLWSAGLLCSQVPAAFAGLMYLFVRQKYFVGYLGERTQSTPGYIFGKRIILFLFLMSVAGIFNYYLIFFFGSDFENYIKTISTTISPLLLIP
Kind of assay: Binding Assay.

Procedure: The FLAP binding assay is performed in HTRF format (homogeneous time resolved fluorescence). FLAP-containing membranes (1 μg/well final for human) are incubated in the presence of the HTRF ligand. […] The reaction is allowed to proceed for two hours after which the plate is read on an Envision plate reader in HTRF mode. Data are expressed as a HTRF ratio. For human FLAP binding assays, data are analyzed with 3DX Explorer software. […] For analysis, data from multiple runs are averaged and each compound may be tested in 2 to 20 runs. Each run comprises two plates and each plate includes duplicates. Data from each plate is averaged and data are imported into 3DX. The data from multiple runs are aggregated as the average of duplicates of the calculated ratios in order to calculate Ki and IC50 values.

By Ki is commonly meant the equilibrium dissociation constant of an inhibitor or competing ligand from its target. High values mean a looser hold on the target, low ones a stronger hold on the target. The compound `Nc1cnc(-c2ccc(-c3ccccc3-c3ccc(N)nn3)cc2F)cn1` [US9745328, Compound 863] yielded a Ki of 41.1 nM.
